In patent US20240100170A1, “CYCLIC-AMP RESPONSE ELEMENT BINDING PROTEIN (CBP) AND/OR ADENOVIRAL E1A BINDING PROTEIN OF 300 KDA (P300) DEGRADATION COMPOUNDS AND METHODS OF USE” (CULLGEN (SHANGHAI), INC., priority 2020, published 2024):
Entries after “also recorded” stand apart in the source; their conditions may differ.

Columns and labels:
P300 [1] = target: T1, P300 (Homo sapiens, UniProt Q09472); experiment: P300 immunoblotting in 22RV1 subcutaneous xenograft tumors; assay type: in vivo, athymic nude mice; set-up: from tissue; host or cells: 22RV1 subcutaneous xenograft tumours in athymic nude mice; details: single dose 40 mg/kg, intraperitoneally or orally, six hours after administration; FIG. 9
T1 sequence (Q09472 whole entry): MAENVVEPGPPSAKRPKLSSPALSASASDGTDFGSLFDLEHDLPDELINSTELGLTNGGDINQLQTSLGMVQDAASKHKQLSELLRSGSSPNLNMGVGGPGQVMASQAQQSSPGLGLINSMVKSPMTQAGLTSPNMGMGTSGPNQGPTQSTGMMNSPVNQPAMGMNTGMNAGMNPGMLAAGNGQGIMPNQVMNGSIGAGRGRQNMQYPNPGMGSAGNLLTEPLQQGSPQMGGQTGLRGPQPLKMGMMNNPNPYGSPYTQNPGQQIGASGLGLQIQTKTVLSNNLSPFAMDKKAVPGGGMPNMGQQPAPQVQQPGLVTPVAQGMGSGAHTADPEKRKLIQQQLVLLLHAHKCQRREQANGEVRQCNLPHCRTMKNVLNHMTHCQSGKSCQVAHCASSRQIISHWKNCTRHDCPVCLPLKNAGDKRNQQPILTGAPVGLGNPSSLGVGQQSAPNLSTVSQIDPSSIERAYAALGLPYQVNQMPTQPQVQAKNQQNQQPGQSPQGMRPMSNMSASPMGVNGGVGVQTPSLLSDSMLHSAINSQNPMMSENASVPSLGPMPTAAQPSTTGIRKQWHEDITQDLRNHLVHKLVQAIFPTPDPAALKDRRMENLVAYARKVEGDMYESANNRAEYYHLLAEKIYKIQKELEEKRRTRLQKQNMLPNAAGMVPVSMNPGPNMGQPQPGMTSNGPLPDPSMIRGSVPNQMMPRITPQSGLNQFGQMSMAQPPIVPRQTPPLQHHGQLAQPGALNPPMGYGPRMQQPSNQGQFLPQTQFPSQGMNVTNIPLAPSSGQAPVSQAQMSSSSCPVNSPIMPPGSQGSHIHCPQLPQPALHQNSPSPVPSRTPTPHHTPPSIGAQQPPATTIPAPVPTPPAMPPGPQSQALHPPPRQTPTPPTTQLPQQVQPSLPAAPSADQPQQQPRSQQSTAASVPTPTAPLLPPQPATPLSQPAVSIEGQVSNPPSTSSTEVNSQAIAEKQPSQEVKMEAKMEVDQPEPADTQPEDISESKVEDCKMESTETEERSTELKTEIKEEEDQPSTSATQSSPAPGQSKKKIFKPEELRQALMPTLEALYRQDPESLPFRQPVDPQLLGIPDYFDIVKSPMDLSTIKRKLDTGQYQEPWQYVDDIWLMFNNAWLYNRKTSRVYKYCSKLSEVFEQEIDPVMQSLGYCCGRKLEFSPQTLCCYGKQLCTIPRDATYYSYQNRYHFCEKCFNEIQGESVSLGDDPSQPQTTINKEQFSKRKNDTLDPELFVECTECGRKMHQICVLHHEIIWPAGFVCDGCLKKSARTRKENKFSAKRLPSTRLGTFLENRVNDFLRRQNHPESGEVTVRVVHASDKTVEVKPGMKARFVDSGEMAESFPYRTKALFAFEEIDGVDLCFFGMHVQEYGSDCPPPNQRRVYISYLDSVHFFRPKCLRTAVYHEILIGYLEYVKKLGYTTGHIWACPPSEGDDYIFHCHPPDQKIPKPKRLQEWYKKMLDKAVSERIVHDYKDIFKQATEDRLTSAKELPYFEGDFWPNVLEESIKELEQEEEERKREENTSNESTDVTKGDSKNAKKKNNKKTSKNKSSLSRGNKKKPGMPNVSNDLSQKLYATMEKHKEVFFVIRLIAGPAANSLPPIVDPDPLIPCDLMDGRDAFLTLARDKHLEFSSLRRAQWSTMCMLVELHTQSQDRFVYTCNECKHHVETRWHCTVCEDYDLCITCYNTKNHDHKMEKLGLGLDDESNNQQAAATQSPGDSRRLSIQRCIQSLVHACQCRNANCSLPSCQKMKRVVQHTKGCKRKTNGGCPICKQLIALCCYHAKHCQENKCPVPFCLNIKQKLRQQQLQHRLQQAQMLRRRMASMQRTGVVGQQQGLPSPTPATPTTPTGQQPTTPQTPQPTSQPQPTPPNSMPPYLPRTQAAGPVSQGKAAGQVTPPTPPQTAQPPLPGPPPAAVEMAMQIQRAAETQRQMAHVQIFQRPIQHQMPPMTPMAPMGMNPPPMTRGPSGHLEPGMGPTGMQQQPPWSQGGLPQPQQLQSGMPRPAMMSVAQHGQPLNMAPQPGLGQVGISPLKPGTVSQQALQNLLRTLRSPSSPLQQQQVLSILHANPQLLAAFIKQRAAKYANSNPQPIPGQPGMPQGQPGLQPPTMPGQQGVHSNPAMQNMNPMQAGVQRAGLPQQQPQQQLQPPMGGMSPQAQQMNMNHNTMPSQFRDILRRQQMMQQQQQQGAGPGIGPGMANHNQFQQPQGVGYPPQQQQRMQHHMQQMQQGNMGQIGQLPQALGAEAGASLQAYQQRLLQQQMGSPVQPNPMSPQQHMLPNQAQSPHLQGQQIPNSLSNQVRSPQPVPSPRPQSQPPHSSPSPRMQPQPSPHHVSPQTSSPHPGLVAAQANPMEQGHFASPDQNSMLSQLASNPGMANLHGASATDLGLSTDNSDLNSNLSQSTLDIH
Procedure: (§1) In addition to cultured cells, athymic nude mice bearing 22RV1 subcutaneous xenograft tumors at the right flank were intraperitoneally or orally treated with 40 mg/kg bivalent compounds. Six hours after drug administration, animals were sacrificed for immunoblotting of P300 and CBP in homogenized xenograft tumor masses. […] Moreover, ICR mice were orally treated with 40 mg/kg bivalent compounds. Six hours after drug administration, animals were sacrificed for immunoblotting of CBP in homogenized lung tissues.
(§2) Athymic nude mice bearing 22RV1 subcutaneous xenograft tumors at the right flank were intraperitoneally or orally treated with selected bivalent compounds at 40 mg/kg. Six hours after drug administration, animals were sacrificed, and xenograft tumors were collected for immunoblotting of P300 and CBP.
(§3) Cultured cells or tissue chunks were washed with cold PBS once and lysed in cold RIPA buffer supplemented with protease inhibitors and phosphatase inhibitors (Beyotime Biotechnology). The solutions were then incubated at 4° C. for 30 minutes with gentle agitation to fully lyse cells. Cell lysates were centrifuged at 13,000 rpm for 10 minutes at 4° C. and pellets were discarded. Total protein concentrations in the lysates were determined by BCA assays (Beyotime Biotechnology). Cell lysates were mixed with Laemmli loading buffer to 1 X and heated at 99° C. for 5 min. Proteins were resolved on SDS-PAGE and visualized by chemiluminescence. Images were taken by a ChemiDoc MP Imaging system (Bio-Rad). Protein bands were quantitated using the accompanied software provided by Bio-Rad.
(§4) All animal experiments were performed under protocols approved by the Institutional Animal Care and Use Committee (IACUC) of Cullgen. Athymic nude mice (male, 5-weeks old) received 5 million 22RV1 cells subcutaneously inoculated at the right flank site. Twenty days following inoculation, tumors were approxmiately 500 mm^3 in size. Tumor-bearing mice were treated intraperitoneally or via oral gavage with vehicle or bivalent compounds at indicated doses. […]

CBP [2] = target: T2, CBP (Homo sapiens, UniProt Q92793); experiment: CBP immunoblotting in 22RV1 subcutaneous xenograft tumors; assay type: in vivo, athymic nude mice; set-up: from tissue; host or cells: 22RV1 subcutaneous xenograft tumours in athymic nude mice; details: single dose 40 mg/kg, intraperitoneally or orally, six hours after administration; FIG. 9
T2 sequence (Q92793 whole entry): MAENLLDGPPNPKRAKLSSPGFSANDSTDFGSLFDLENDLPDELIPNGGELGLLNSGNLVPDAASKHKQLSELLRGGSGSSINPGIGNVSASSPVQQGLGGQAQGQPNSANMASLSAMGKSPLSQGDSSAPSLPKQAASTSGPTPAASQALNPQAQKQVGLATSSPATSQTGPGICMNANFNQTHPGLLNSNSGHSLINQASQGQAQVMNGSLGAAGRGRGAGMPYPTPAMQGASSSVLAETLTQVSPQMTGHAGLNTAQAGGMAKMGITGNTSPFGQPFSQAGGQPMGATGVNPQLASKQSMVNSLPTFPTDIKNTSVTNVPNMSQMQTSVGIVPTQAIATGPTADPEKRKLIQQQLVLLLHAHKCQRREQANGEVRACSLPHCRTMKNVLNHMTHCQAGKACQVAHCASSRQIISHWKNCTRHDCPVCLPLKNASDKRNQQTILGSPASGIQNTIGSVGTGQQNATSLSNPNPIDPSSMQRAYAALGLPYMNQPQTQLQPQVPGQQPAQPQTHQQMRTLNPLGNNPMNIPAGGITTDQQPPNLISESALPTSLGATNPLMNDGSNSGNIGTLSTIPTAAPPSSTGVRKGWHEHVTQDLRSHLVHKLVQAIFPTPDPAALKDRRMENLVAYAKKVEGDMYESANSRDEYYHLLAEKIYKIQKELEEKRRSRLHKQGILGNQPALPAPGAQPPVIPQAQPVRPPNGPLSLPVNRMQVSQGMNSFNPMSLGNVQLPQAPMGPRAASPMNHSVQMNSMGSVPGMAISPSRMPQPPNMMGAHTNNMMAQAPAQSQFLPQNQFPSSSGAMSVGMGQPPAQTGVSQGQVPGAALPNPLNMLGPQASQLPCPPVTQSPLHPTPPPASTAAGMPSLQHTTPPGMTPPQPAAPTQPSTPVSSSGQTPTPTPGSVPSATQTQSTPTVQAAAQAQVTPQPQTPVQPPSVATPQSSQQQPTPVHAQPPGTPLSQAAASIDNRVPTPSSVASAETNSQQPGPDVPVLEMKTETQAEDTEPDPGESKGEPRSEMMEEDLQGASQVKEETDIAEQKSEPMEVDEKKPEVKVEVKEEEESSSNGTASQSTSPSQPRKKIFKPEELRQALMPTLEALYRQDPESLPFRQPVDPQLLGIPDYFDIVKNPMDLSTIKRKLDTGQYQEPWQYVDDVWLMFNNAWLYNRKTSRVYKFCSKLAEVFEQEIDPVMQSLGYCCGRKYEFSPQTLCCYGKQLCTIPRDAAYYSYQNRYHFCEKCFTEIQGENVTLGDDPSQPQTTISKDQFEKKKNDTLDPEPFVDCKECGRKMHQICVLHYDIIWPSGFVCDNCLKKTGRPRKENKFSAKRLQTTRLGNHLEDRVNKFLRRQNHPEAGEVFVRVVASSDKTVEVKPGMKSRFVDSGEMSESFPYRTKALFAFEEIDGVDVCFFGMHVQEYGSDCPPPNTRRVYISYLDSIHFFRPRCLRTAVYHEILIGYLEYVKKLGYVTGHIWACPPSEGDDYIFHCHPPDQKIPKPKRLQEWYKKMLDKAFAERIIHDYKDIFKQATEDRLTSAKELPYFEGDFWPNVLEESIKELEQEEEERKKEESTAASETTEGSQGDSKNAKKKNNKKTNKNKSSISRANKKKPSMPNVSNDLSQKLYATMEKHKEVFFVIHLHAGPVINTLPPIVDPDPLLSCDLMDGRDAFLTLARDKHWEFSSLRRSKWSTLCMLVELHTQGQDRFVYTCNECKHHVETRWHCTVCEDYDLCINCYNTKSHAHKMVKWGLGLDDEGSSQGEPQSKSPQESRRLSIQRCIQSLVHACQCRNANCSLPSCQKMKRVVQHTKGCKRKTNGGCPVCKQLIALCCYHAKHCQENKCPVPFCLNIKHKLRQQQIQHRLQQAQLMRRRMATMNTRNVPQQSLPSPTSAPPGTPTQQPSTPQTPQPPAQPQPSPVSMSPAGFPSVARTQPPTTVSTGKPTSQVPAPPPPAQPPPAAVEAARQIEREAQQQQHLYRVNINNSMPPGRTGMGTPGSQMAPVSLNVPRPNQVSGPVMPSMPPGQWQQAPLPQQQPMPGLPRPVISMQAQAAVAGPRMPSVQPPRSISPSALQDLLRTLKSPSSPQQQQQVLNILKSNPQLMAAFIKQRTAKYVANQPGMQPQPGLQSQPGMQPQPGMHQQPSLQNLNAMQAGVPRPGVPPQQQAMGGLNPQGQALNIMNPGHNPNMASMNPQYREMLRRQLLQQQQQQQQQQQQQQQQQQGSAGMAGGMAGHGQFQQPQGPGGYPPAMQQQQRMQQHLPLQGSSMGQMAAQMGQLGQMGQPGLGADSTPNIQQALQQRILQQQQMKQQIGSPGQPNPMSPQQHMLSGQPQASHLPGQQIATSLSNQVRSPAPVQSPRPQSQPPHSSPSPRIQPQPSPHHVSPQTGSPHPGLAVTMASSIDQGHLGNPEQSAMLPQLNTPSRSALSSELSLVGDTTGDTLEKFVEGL
Procedure: as §1, §2, §3, §4

CBP [3] = target: T2, CBP; experiment: CBP protein level by immunoblotting in LNCaP cells; assay type: cell-based; set-up: LNCaP or 22RV1 cells that express CBP/P300 proteins were treated with GNE-781 or the bivalent compounds; endogenous in cells; host or cells: LNCaP (clone FGC); details: single dose, FIG. 8
Procedure: (§5) Specific exemplary bivalent compounds were characterized in LNCaP or 22RV1 cells. LNCaP or 22RV1 cells that express CBP/P300 proteins were treated with GNE-781 or the bivalent compounds disclosed herein (P-001 to P-265) for indicated hours. Cells were collected, lysed and subject to immunoblotting using an antibody specific to P300 or CBP proteins. Tubulin or vinculin was included as the loading control. DMSO was used as the negative control.
(§6) LNCaP (clone FGC), 22RV1 and other cells were cultured at 37° C. with 5% CO 2 in RPMI 1640 Medium supplemented with 10% fetal bovine serum. Cells were authenticated using the short tandem repeat (STR) assays. Mycoplasma test results were negative.
as §3

P300 [4] = target: T1, P300; experiment: P300 protein level by immunoblotting in LNCaP cells; assay type: cell-based; set-up: LNCaP or 22RV1 cells that express CBP/P300 proteins were treated with GNE-781 or the bivalent compounds; endogenous in cells; host or cells: LNCaP or 22RV1 (not given); details: for degradation of P300 in combination with pomalidomide, MG-132, Bortezomib or MLN4924: single dose, FIG. 8; for P300 protein levels: various concentrations, compound vs analogue that lost cereblon binding, FIG. 7A
Procedure: as §5, §6, §3

P300 [5] = target: T1, P300; experiment: P300 protein level by immunoblotting in 22RV1 cells; assay type: cell-based; set-up: LNCaP or 22RV1 cells that express CBP/P300 proteins were treated with GNE-781 or the bivalent compounds; endogenous in cells; host or cells: LNCaP or 22RV1 (not given); details: various concentrations, compound vs analogue that lost cereblon binding, FIG. 7B
Procedure: as §5, §6
as §3, with “Proteins were resolved on SDS-PAGE and visualized by chemiluminescence. Images were taken by a ChemiDoc MP Imaging system (Bio-Rad).” left out

[6] = tested on: LNCaP prostate cancer cell; experiment: LNCaP cell viability (CellTiter-Glo); assay type: cell-based; details: Homo sapiens, 72 h; LNCaP cell viability, 3 days, CellTiter-Glo; Table 4
Outline: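 LNCaP cells (5000/well, RPMI 1640 + 10% FBS, 37 °C) treated with compounds in 12-point 3-fold serial dilution for three days. Viability read by CellTiter-Glo luminescence, normalized to untreated cells; IC50 from least-squares nonlinear regression.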

P300 [7] = target: T1, P300; experiment: percentage of inhibition (degradation) of p300 at 10 nM, Tables 2-4; assay type: cell-based; set-up: LNCaP or 22RV1 cells that express CBP/P300 proteins were treated with GNE-781 or the bivalent compounds; endogenous in cells; host or cells: LNCaP or 22RV1 (not given); details: p300, 10 nM; Table 4; read-out: Degradation (10 nM)
Outline: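 Degradation was measured at 10 nM. Cells or tissue were lysed in RIPA with protease and phosphatase inhibitors for 30 min at 4 °C and cleared, and protein was quantified by BCA. Lysates were resolved by SDS-PAGE, detected by chemiluminescent immunoblot, and bands were quantified by densitometry.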

Structure (SMILES)	P300 protein levels in xenograft tumors (P300 [1])	CBP protein levels in xenograft tumors (CBP [2])	degradation of CBP in combination with pomalidomide, MG-132, Bortezomib or MLN4924 (CBP [3])	degradation of P300 in combination with pomalidomide, MG-132, Bortezomib or MLN4924 (P300 [4])	P300 protein levels (P300 [4])	P300 protein levels (P300 [5])	IC50 [6] [nM]	inhibition at 0.01 µM (P300 [7]) [%]
CNC(=O)N1CCc2c(c(N3CCCc4cc(-c5cnn(C)c5)c(C(F)F)cc43)nn2C2CCN(C(=O)CCCCCCCNc3ccc4c(c3)C(=O)N(C3CCC(=O)NC3=O)C4=O)CC2)C1 (centres unmarked) [P-007, 3-(7-(difluoromethyl)-6-(1-methyl-1H-pyrazol-4-yl)-3,4-dihydroquinolin-1(2H)-yl)-1-(1-(8-((2-(2,6-dioxopiperidin-3-yl)-1,3-dioxoisoindolin-5-yl)amino)octanoyl)piperidin-4-yl)-N-methyl-1,4,6,7-tetrahydro-5H-pyrazolo[4,3-c]pyridine-5-carboxamide]	significantly reducing	significantly reducing	compromised; also recorded: could be neutralized	compromised; also recorded: could be neutralized	–	–	–	–
CNC(=O)N1CCc2c(c(N3CCCc4cc(-c5cnn(C)c5)c(C(F)F)cc43)nn2C2CCN(C(=O)CCCCCNc3cccc4c3C(=O)N(C3CCC(=O)NC3=O)C4=O)CC2)C1 (centres unmarked) [P-034, 3-(7-(difluoromethyl)-6-(1-methyl-1H-pyrazol-4-yl)-3,4-dihydroquinolin-1(2H)-yl)-1-(1-(6-((2-(2,6-dioxopiperidin-3-yl)-1,3-dioxoisoindolin-4-yl)amino)hexanoyl)piperidin-4-yl)-N-methyl-1,4,6,7-tetrahydro-5H-pyrazolo[4,3-c]pyridine-5-carboxamide]	significantly reducing	significantly reducing	compromised; also recorded: could be neutralized	compromised; also recorded: could be neutralized	a chemical modification that disrupted cereblon binding abolished P300 degradation	a chemical modification that disrupted cereblon binding abolished P300 degradation	–	–
CC(=O)N1CCc2c(c(N3CCCc4cc(-c5cnn(C)c5)c(C(F)F)cc43)nn2C2CCN(C(=O)CCCCCNc3cccc4c3C(=O)N(C3CCC(=O)NC3=O)C4=O)CC2)C1 (centres unmarked) [P-100, 4-((6-(4-(5-acetyl-3-(7-(difluoromethyl)-6-(1-methyl-1H-pyrazol-4-yl)-3,4-dihydroquinolin-1(2H)-yl)-4,5,6,7-tetrahydro-1H-pyrazolo[4,3-c]pyridin-1-yl)piperidin-1-yl)-6-oxohexyl)amino)-2-(2,6-dioxopiperidin-3-yl)isoindoline-1,3-dione]	significantly reducing	significantly reducing	compromised; also recorded: could be neutralized	compromised; also recorded: could be neutralized	reduced P300 protein levels in a concentration-dependent manner	reduced P300 protein levels in a concentration-dependent manner	–	–
CC(=O)N1CCc2c(c(N3CCCc4cc(-c5cnn(C)c5)c(C(F)F)cc43)nn2C2CCN(C(=O)CCCNc3ccc(C(=O)NC4CCC(=O)NC4=O)c4ncccc34)CC2)C1 (centres unmarked) [P-253, 5-((4-(4-(5-acetyl-3-(7-(difluoromethyl)-6-(1-methyl-1H-pyrazol-4-yl)-3,4-dihydroquinolin-1(2H)-yl)-4,5,6,7-tetrahydro-1H-pyrazolo[4,3-c]pyridin-1-yl)piperidin-1-yl)-4-oxobutyl)amino)-N-(2,6-dioxopiperidin-3-yl)quinoline-8-carboxamide]	–	–	–	–	–	–	2.6	> 80
CC(=O)N1CCc2c(c(N3CCCc4cc(-c5cnn(C)c5)c(C(F)F)cc43)nn2C2CCN(C(=O)CNc3ccc(C(=O)NC4CCC(=O)NC4=O)c4ncccc34)CC2)C1 (centres unmarked) [P-254, 5-((2-(4-(5-acetyl-3-(7-(difluoromethyl)-6-(1-methyl-1H-pyrazol-4-yl)-3,4-dihydroquinolin-1(2H)-yl)-4,5,6,7-tetrahydro-1H-pyrazolo[4,3-c]pyridin-1-yl)piperidin-1-yl)-2-oxoethyl)amino)-N-(2,6-dioxopiperidin-3-yl)quinoline-8-carboxamide]	–	–	–	–	–	–	5.1	> 80
CC(=O)N1CCc2c(c(N3CCCc4cc(-c5cnn(C)c5)c(C(F)F)cc43)nn2C2CCN(C(=O)CC3CCN(c4ccc(C(=O)NC5CCC(=O)NC5=O)c5ncccc45)CC3)CC2)C1 (centres unmarked) [P-256, 5-(4-(2-(4-(5-acetyl-3-(7-(difluoromethyl)-6-(1-methyl-1H-pyrazol-4-yl)-3,4-dihydroquinolin-1(2H)-yl)-4,5,6,7-tetrahydro-1H-pyrazolo[4,3-c]pyridin-1-yl)piperidin-1-yl)-2-oxoethyl)piperidin-1-yl)-N-(2,6-dioxopiperidin-3-yl)quinoline-8-carboxamide]	–	–	–	–	–	–	1.3	> 80
CC(=O)N1CCc2c(c(N3CCCc4cc(-c5cnn(C)c5)c(C(F)F)cc43)nn2C2CCN(C(=O)CCCCCCCCC(=O)Nc3cccc(NC4CCC(=O)NC4=O)c3)CC2)C1 (centres unmarked) [P-264, 10-(4-(5-Acetyl-3-(7-(difluoromethyl)-6-(1-methyl-1H-pyrazol-4-yl)-3,4-dihydroquinolin-1(2H)-yl)-4,5,6,7-tetrahydro-1H-pyrazolo[4,3-c]pyridin-1-yl)piperidin-1-yl)-N-(3-((2,6-dioxopiperidin-3-yl)amino)phenyl)-10-oxodecanamide]	–	–	–	–	–	–	486	< 20
CC(=O)N1CCc2c(c(N3CCCc4cc(-c5cnn(C)c5)c(C(F)F)cc43)nn2C2CCN(C(=O)CCCCCCCCCC(=O)Nc3cccc(NC4CCC(=O)NC4=O)c3)CC2)C1 (centres unmarked) [P-265, 11-(4-(5-Acetyl-3-(7-(difluoromethyl)-6-(1-methyl-1H-pyrazol-4-yl)-3,4-dihydroquinolin-1(2H)-yl)-4,5,6,7-tetrahydro-1H-pyrazolo[4,3-c]pyridin-1-yl)piperidin-1-yl)-N-(3-((2,6-dioxopiperidin-3-yl)amino)phenyl)-11-oxoundecanamide]	–	–	–	–	–	–	592	< 20
